Tested on: DU-145
Assay: Cytotoxicity against human DU-145 cells
Type: functional, cell-based

CC(=O)O[C@@]12CO[C@@H]1C[C@H](O)[C@@]1(C)C(=O)[C@H](O)C3=C(C)[C@@H](OC(=O)[C@H](O)[C@@H](NC(=O)OC(C)(C)C)c4ccccc4)C[C@@](O)([C@@H](OC(=O)c4ccccc4)[C@H]21)C3(C)C [DOCETAXEL ANHYDROUS]
IC50: 5 nM

Reference: ChEMBL document CHEMBL4819119, “Design and evaluation of 1,2,3-dithiazoles and fused 1,2,4-dithiazines as anti-cancer agents” (Bioorg Med Chem Lett, 2021)
